{"source": "patent US7498311B2", "about": "“Treatment of migraine” (New England Medical Center Hospitals, Inc., priority 1995, dated 2009)", "system": "migraine episodes in epileptic patients", "assay": "Anti-migraine activity in epileptic patients (two case reports, daily topiramate)", "type": "in vivo, human", "from_the_text": "Patient 1, an epileptic, suffered from complex partial seizures and frequent episodes of migraine, some of which were temporally related to their seizures. Seizures and migraines were incompletely responsive to large doses of calcium channel blockers added to their anti-epileptic drug regimen. Patient 2 suffered from complex partial seizures and frequent, severe migraine episodes, requiring regular use of sumatripan. Patient 1 took topiramate daily for 18 months. Patient 2 took topiramate daily for 10 months."}
{"smiles": "CC1(C)O[C@@H]2[C@@H](CO[C@@]3(COS(N)(=O)=O)OC(C)(C)O[C@@H]23)O1", "note": "[topiramate, 2,3:4,5-bis-O-(1-methylethydine)-β-D-fructopyranose sulfamate]", "values": [{"measurement": "improvement in migrainous episodes", "setting": "Patient 1 (epileptic, complex partial seizures, frequent migraine), 600 mg/d", "value": "substantial improvement in migrainous episodes"}, {"measurement": "migrainous episodes", "setting": "Patient 1, after taking 800 mg/d, verapamil, nimodipine and cimetidine withdrawn", "value": "had not experienced any migrainous episodes"}, {"measurement": "adverse effects", "setting": "Patient 1, daily for 18 months", "value": "did not experience any adverse effects"}, {"measurement": "control of migraine episodes", "setting": "Patient 1, daily for 18 months, except for one migrainous aura, all calcium channel blockers withdrawn", "value": "nearly completely controlled"}, {"measurement": "improvement of migraine headaches", "setting": "Patient 2 (epileptic, complex partial seizures, frequent severe migraine), 400 mg/d", "value": "substantial improvement of their migraine headaches"}, {"measurement": "frequency of migraine headaches", "setting": "Patient 2, after taking 200 mg/d", "value": "substantially less frequent migraine headaches"}, {"measurement": "migraine status after the sixth month", "setting": "Patient 2, daily for 10 months", "value": "migraine-free thereafter until the tenth month"}, {"measurement": "migraine episodes in the fifth and sixth months of use", "setting": "Patient 2, during brief cessation of their propanolol therapy", "value": "several episodes of basilar migraine without headache"}, {"measurement": "use of sumatriptan rescue medication", "setting": "Patient 2, once taking 300 mg/d", "value": "eliminating the average use of 2 administrations of sumatriptan per week"}]}
